{
  "source": "paper PMC6478789",
  "about": "“A chemical toolbox for the study of bromodomains and epigenetic signaling” (Nature Communications, 2019)",
  "key": {"[1]": {"tested_on": "BT-549 and MDA-MB436 cell lines", "experiment": "JQ1 dose-response with or without BAY-876", "assay_type": "cell-based, human", "conditions": "with or without 3 μM BAY-876, 7 days"}, "three TNBC lines": {"tested_on": "three TNBC lines", "experiment": "Combinatorial screen of BRD inhibitors with or without BAY-876 (confluency)", "assay_type": "cell-based, human", "conditions": "3 μM probe + 3 μM BAY-876", "procedure": "Fig. 6 BRD inhibitors leverage metabolic adaptations induced by glucose transporter I (GLUT1) inhibition in TNBC. a BRD inhibitor screening across ten TNBC cell lines. Cells were treated with indicated BRD inhibitors at 3 μM for 7 days. Confluency was measured using an IncuCyte ZOOM live cell imaging device. Data shown are mean ± s.d. of n = 4 independent cell culture grown and treated cells. A two-sided Student’s t test was used to derive the p-values. b SLC2A1 gene expression in the The Cancer Genome Atlas (TCGA) breast datasets. The cohorts were divided into TNBCs (red) and non-TNBCs (blue) according to PAM50 classification. Gene expression is reported as median-centered expression log2 values. The number of patients (n) per group is indicated. P-values were determined using a Wilcoxon's rank-sum test. c Glucose uptake in MDA-MB-436 cells in response to BAY-876 treatment relative to vehicle. MDA-MB-436 cells were treated with dimethyl sulfoxide (DMSO) or 3 µM BAY-876 for 5 days. Graph indicates mean, error bars denote s.d. from three independent assays and p-value was computed using the Benjamini-Hochberg t test; ***p < 0.001. d Effects of BAY-876 treatment on the intracellular acetyl-CoA level. Graph indicates mean, error bars denote s.d. from three independent assays and p-value was computed using the Benjamini-Hochberg t test; ***p < 0.001. e Effects of BAY-876 treatment on intracellular NAD^+/NADH level. Graph indicates the mean, error bars denote s.d. from three independent assays and p-value computed using the Benjamini-Hochberg t test; **p < 0.01. f Immunoblot analysis of H3 and H4 acetylation in MDA-MB-436 cells before and after BAY-876 treatment. P-value computed using the Benjamini-Hochberg t test; ***p < 0.001. g Cell growth effects of BAY-876 treatment on three representative cell lines. n.s. not significant. h Combinatorial screening of BRD inhibitors with or without 3 μM BAY-876 across ten TNBC cell lines. Cell confluency was obtained from the endpoint Incucyte scanning. (Left) Heatmap of the combinatorial screening results; (Right) Cell confluency after treatment with three potential BRDi candidates at 3 μM in the presence or absence of 3 μM BAY-876 in three representative cell lines. Graph indicates mean, error bars denote s.d. from three independent assays and p-values were computed using the Benjamini-Hochberg t test; **p < 0.01; ***p < 0.001. Raw data images are available in Supplementary Fig. 4\nTNBC cell lines were seeded in sterile, transparent 384-well plates at 500 cells per well in 50 µl media. Chemical probes were delivered in dimethyl sulfoxide (DMSO). Cell confluency at 7 days was evaluated using an Incucyte ZOOM live cell imaging device (Essen Bioscence) and analyzed with the Incucyte ZOOM (2016A) software based on phase contrast image."}, "EP300": {"target": "EP300 (Homo sapiens, UniProt Q09472)", "sequence (Q09472 whole entry, species assumed)": "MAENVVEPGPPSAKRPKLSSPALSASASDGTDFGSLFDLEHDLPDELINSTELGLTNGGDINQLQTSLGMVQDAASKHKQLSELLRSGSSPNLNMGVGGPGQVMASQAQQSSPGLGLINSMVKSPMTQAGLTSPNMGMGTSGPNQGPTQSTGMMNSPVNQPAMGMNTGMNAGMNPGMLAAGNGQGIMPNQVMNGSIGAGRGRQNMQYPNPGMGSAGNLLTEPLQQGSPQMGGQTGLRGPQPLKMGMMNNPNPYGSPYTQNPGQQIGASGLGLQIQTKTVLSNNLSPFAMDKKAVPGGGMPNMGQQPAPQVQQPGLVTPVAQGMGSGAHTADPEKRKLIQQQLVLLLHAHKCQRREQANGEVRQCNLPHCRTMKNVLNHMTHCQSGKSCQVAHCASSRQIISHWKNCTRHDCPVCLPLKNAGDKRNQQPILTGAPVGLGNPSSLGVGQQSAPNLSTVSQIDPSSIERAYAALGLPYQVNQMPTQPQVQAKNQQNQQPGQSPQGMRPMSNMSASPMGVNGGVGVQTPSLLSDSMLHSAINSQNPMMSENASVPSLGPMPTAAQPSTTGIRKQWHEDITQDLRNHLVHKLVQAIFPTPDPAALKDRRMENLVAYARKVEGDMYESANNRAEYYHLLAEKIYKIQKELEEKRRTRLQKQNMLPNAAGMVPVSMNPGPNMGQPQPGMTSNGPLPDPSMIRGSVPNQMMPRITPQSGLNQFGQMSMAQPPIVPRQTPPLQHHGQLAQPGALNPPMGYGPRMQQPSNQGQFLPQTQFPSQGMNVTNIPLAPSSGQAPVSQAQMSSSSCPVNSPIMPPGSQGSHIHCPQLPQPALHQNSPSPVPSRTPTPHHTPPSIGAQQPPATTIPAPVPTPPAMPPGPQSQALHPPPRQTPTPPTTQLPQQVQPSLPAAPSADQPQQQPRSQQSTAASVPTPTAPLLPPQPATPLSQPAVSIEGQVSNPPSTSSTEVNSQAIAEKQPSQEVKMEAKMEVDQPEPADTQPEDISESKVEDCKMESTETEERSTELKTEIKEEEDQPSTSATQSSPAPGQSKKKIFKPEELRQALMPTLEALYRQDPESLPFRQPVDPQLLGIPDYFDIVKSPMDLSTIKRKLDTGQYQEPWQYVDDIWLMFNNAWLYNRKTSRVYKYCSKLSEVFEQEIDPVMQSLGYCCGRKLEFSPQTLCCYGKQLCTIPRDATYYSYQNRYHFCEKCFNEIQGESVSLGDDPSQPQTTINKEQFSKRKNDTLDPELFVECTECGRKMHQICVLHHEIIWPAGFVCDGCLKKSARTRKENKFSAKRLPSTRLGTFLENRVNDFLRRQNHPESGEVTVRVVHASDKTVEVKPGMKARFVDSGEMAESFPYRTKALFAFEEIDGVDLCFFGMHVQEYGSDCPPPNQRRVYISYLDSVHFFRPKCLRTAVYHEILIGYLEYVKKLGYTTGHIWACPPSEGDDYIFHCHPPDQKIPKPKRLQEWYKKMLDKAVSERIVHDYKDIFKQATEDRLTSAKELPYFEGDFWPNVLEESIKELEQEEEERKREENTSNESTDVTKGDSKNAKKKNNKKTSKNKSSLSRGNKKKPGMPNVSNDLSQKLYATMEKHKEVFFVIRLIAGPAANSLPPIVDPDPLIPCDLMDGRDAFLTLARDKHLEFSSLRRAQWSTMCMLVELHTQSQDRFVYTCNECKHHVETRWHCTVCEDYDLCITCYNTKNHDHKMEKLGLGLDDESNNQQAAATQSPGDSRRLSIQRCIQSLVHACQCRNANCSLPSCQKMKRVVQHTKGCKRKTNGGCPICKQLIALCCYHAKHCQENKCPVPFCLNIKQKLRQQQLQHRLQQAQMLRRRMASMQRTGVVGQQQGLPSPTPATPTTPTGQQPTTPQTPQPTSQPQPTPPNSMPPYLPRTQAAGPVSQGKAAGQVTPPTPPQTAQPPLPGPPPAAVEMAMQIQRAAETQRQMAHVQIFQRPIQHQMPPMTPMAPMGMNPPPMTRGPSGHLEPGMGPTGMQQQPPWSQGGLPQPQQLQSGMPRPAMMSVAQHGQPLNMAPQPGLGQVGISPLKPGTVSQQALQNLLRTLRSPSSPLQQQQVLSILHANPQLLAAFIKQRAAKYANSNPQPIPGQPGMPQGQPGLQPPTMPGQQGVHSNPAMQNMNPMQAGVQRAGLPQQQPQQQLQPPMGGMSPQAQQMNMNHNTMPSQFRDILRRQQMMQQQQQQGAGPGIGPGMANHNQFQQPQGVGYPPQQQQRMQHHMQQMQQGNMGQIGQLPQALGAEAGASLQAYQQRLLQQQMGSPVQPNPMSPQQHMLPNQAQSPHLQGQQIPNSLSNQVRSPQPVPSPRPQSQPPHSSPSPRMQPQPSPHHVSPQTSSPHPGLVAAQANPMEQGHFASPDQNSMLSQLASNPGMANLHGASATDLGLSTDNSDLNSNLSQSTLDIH", "experiment": "Histone acetyltransferase (HAT) activity assay", "assay_type": "biochemical", "conditions": "read-out: HATs Activity (%)"}, "ten TNBC cell lines": {"tested_on": "ten TNBC cell lines", "experiment": "High-throughput screening of bromodomain inhibitors in TNBC panel (confluency)", "assay_type": "cell-based, human", "conditions": "3 μM, 7 days", "procedure": "Fig. 6 BRD inhibitors leverage metabolic adaptations induced by glucose transporter I (GLUT1) inhibition in TNBC. a BRD inhibitor screening across ten TNBC cell lines. Cells were treated with indicated BRD inhibitors at 3 μM for 7 days. Confluency was measured using an IncuCyte ZOOM live cell imaging device. Data shown are mean ± s.d. of n = 4 independent cell culture grown and treated cells. A two-sided Student’s t test was used to derive the p-values. b SLC2A1 gene expression in the The Cancer Genome Atlas (TCGA) breast datasets. The cohorts were divided into TNBCs (red) and non-TNBCs (blue) according to PAM50 classification. Gene expression is reported as median-centered expression log2 values. The number of patients (n) per group is indicated. P-values were determined using a Wilcoxon's rank-sum test. c Glucose uptake in MDA-MB-436 cells in response to BAY-876 treatment relative to vehicle. MDA-MB-436 cells were treated with dimethyl sulfoxide (DMSO) or 3 µM BAY-876 for 5 days. […]\nTNBC cell lines were seeded in sterile, transparent 384-well plates at 500 cells per well in 50 µl media. […] Cell confluency at 7 days was evaluated using an Incucyte ZOOM live cell imaging device (Essen Bioscence) and analyzed with the Incucyte ZOOM (2016A) software based on phase contrast image."}, "MYST3": {"target": "MYST3 (Homo sapiens, UniProt Q92794)", "experiment": "Histone acetyltransferase (HAT) activity assay", "assay_type": "biochemical", "conditions": "read-out: HATs Activity (%)"}, "C2C12 myoblast cells": {"tested_on": "C2C12 myoblast cells", "experiment": "Gene-expression analysis (microarray)", "assay_type": "cell-based, mouse", "conditions": "12 h; 500 nM (JQ1, LP-99), 2 μM (GSK2801, BAZ2-ICR, BSP)", "procedure": "Total RNA was extracted using the PureLink^TM RNA mini kit (Thermo Fisher Scientific, 12183018A) as per the manufacturer’s protocol.\nRNA samples were processed for oligonucleotide microarray profiling utilizing the Affymetrix Clariom^TM S Assay HT mouse. Quality controls were carried out in R (v.3.5.1) and Bioconductor[71] (v.3.7) using the arrayQualityMetrics package (v.3.36.0) taking into account array intensity distributions, distance between arrays, and variance mean dependence. Principal component analysis was used to decide which arrays to process together. After quality control, arrays were corrected for background, normalized, and log2-transformed together using the rma function of the oligo package (v.1.44)[73] in R/Bioconductor. Probes with small variance across samples were filtered out using the genefilter (v.1.62) package, employing the nsFilter function and an interquartile range cut-off of 0.28 (or >log(1.2), determined by the midpoint of the shortest interval containing half of the data). This reduced the number of probes of the Clariom^TM S array from 29,129 to 14,538.\nDifferential expression analysis was conducted using the limma package (v.3.36.2)[74], employing a linear model followed by empirical Bayesian analysis to determine differential expression between not-treated and treated samples."}, "MYST1": {"target": "T1, MYST1 (Homo sapiens, UniProt Q9H7Z6)", "T1 sequence (Q9H7Z6 1-458)": "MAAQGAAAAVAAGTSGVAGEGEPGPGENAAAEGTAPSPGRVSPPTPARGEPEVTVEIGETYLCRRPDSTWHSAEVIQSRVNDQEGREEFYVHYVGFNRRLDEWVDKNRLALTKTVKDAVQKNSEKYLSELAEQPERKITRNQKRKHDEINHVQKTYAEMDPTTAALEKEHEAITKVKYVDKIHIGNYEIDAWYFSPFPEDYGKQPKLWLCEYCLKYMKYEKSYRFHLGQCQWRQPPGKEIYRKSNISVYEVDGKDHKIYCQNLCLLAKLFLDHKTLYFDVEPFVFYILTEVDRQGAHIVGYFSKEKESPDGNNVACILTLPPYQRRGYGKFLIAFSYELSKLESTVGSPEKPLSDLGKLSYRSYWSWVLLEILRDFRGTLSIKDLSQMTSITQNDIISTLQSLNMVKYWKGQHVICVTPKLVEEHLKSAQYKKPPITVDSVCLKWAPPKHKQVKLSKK", "experiment": "Histone acetyltransferase (HAT) activity assay", "assay_type": "biochemical", "conditions": "read-out: HATs Activity (%)"}, "HAT1": {"target": "T2, HAT1 (Homo sapiens, UniProt O14929)", "T2 sequence (O14929 1-419)": "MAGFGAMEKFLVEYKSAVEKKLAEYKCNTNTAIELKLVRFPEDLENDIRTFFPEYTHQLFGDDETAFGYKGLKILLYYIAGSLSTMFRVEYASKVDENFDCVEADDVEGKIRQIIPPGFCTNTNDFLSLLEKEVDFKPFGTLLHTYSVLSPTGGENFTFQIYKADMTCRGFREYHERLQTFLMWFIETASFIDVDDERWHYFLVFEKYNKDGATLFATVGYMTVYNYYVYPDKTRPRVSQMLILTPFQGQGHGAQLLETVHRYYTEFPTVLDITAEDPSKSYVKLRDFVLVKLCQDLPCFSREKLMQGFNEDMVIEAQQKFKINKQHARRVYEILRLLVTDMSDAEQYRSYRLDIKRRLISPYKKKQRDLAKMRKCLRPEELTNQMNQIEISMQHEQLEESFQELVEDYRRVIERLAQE", "experiment": "Histone acetyltransferase (HAT) activity assay", "assay_type": "biochemical", "conditions": "read-out: HATs Activity (%)"}, "GCN5L2": {"target": "GCN5L2 (Homo sapiens, UniProt Q92830)", "sequence (Q92830 whole entry, species assumed)": "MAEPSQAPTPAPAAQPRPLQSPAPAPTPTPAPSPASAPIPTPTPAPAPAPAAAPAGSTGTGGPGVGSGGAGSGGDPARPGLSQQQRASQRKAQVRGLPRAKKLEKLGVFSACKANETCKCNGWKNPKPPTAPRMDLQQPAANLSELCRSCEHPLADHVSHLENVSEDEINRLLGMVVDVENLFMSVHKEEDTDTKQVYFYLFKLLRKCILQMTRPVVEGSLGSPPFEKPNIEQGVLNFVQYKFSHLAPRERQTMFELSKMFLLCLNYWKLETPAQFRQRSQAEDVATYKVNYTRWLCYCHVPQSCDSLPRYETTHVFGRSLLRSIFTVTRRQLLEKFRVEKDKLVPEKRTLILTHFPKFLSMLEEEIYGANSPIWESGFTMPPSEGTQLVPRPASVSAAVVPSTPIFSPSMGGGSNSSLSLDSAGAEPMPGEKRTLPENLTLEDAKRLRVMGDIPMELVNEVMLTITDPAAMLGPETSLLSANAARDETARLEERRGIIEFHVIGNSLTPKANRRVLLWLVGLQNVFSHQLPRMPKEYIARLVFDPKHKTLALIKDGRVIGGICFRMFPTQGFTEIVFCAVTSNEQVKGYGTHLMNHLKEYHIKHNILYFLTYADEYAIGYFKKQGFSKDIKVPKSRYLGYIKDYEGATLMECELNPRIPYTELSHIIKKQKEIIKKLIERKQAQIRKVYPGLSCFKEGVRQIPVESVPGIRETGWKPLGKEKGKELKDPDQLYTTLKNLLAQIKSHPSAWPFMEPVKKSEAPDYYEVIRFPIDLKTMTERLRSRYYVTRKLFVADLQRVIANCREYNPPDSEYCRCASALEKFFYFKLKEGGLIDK", "experiment": "Histone acetyltransferase (HAT) activity assay", "assay_type": "biochemical", "conditions": "read-out: HATs Activity (%)"}},
  "data": [
    {"smiles": "Cc1sc2c(c1C)C(c1ccc(Cl)cc1)=NC(CC(=O)OC(C)(C)C)c1nnc(C)n1-2", "note": "(centres unmarked) [JQ1]", "values": [
      {"measurement": "synergy with BAY-876", "setting": "[1]", "value": "no significant synergistic effect"},
      {"measurement": "combination effect with BAY-876 across the three cell lines", "setting": "three TNBC lines", "value": "efficacy in only one of the three tested TNBC lines"},
      {"measurement": "activity at 1 µM", "setting": "EP300", "value": 99, "unit": "%"},
      {"measurement": "activity at 10 µM", "setting": "EP300", "value": 102, "unit": "%"},
      {"measurement": "anti-proliferative effect (confluency)", "setting": "ten TNBC cell lines", "value": "strong anti-proliferative effects"},
      {"measurement": "activity at 1 µM", "setting": "MYST3", "value": 108, "unit": "%"},
      {"measurement": "activity at 10 µM", "setting": "MYST3", "value": 100, "unit": "%"},
      {"measurement": "changes in gene-expression levels", "setting": "C2C12 myoblast cells", "value": "significant changes in gene-expression levels"},
      {"measurement": "activity at 1 µM", "setting": "MYST1", "value": 99, "unit": "%"},
      {"measurement": "activity at 10 µM", "setting": "MYST1", "value": 95, "unit": "%"},
      {"measurement": "activity at 1 µM", "setting": "HAT1", "value": 98, "unit": "%"},
      {"measurement": "activity at 10 µM", "setting": "HAT1", "value": 103, "unit": "%"},
      {"measurement": "activity at 1 µM", "setting": "GCN5L2", "value": 104, "unit": "%"},
      {"measurement": "activity at 10 µM", "setting": "GCN5L2", "value": 98, "unit": "%"}
    ]}
  ]
}
